Converted amounts (≈) assume the structure as drawn. Where two headings read alike, the source gives them in different places. Each block holds one compound with its values, some of them ahead of it.
Assays:
[1] = Solubilities in water (20° C.); type: physicochemical
Description: The compound according to the invention allows therefore to increase the solubility of curcumin derivatives in aqueous solutions which in turn enables IV administrations and/or increases their bioavailability. The table below presents the solubilities of the various intermediates.

[2] = Influence of different cyclodextrins on curcumin solubility; type: physicochemical; conditions: FIGS. 11a and 11b
PC3 [3] = test: MTT test, overall cell growth, PC3; type: cell-based, human; conditions: read-out: IC50 PC3
Description: (§1) MTT tests were performed in order to rapidly, i.e. within 5 days, measure the effect of compounds of this invention on the overall cell growth. […] The amount of formazan obtained at the end of the experiment, measured by means of a spectrophotometer, is directly proportional to the number of living cells. Optical density determination thus enabled a quantitative measurement of the effect of the investigated compounds as compared to the control condition (untreated cells) and/or to other reference compounds. Six human cancer cell lines described in Table 5 were used in the following MTT tests. These cancer cell lines cover six histological cancer types, being prostate, glioma, pancreas, colon, lung, and breast cancers. To perform the assay, cells were allowed to grow in 96-well micro-wells with a flat bottom with an amount of 100 μl of cell suspension per well with 1,000 to 4,000 cells/well depending on the cell type used. Each cell line was seeded in its appropriate culture medium. […] Each experiment was performed in sextaplicates. […] The micro-wells were subsequently incubated during 3 hours at 37° C. and centrifuged at 400 g during 10 minutes. MTT was removed and formazan crystals formed were dissolved in 100 μl DMSO. The micro-wells were shaken for 5 minutes and read on a spectrophotometer at wavelengths of 570 nm (maximal formazan absorbance). For each experimental condition, the mean optical density was calculated, allowing the determination of the percentage of remaining living cells in comparison to the control.

A549 = test: MTT test, overall cell growth, A549; type: cell-based, human; conditions: read-out: IC50 A549
Description: as §1

LoVo = test: MTT test, overall cell growth, LoVo; type: cell-based, human; conditions: read-out: IC50 LoVo
Description: as §1

BxPC3 = test: MTT test, overall cell growth, BxPC3; type: cell-based, human; conditions: read-out: IC50 BxPC3
Description: as §1

U-373MG = test: MTT test, overall cell growth, U-373MG; type: cell-based, human; conditions: read-out: IC50 U-373MG
Description: as §1

MCF-7 = test: MTT test, overall cell growth, MCF-7; type: cell-based, human; conditions: read-out: IC50 MCF-7
Description: as §1

[4] = tested on: SC-VII mouse head and neck cancer cells; test: SC-VII mouse head and neck orthotopic cancer model, survival; type: in vivo; conditions: IP, NDS27 20 mg/kg 3 times per day, 5 days per week, 3 weeks, cisplatin 5 mg/kg 1 time per week, control vehicle
Description: To test the in vivo anti-cancer activity of the compound according to the invention, we made use of the SC-VII mouse head and neck orthotopic cancer model. SC-VII mouse head and neck cancer cells were cultivated in conventional culture medium containing supplementation in foetal calf serum and antibiotics (penicillin/streptomycin and gentamycin). 500 000 cancer cells were grafted in a serum free culture medium (50 μl) into the floor of the mouth of each mouse. 5 days after the graft, the 44 animals were divided into four groups of 11 mice. The treatments were as follows: • Group 1: mice treated with the vehicle alone (HP-beta-CD—L-Lysine solution) • Group 2: mice treated with cisplatin administered IP at the dosis of 5 mg/kg, 1 time per week during 3 weeks • Group 3: mice treated IP with the NDS27 compound according to the invention administered 3 times per day, 5 days per week during 3 weeks at the doses of 20 mg/kg • Group 4: mice treated with a combination of both treatments described for groups 2 and 3.
Mice were sacrificed when they lost 20% of their weight or when tumour reached 500 mm^2. Survival of the animals was followed and is illustrated in FIG. 8.

[5] = tested on: isolated neutrophils stimulated by phorbol myristate acetate (PMA); test: ROS production by PMA-stimulated isolated neutrophils (chemiluminescence); type: cell-based; conditions: FIG. 16
Description: (§2) The ROS production and the release of MPO by activated neutrophils were measured by chemiluminescence and ELISA techniques, respectively (Franck et al., 2008, Physiol. Res. 57(4):577-87). The activity of purified MPO was measured by using an original method called […] (specific immune extraction followed by enzymatic detection) allowing the study of drug interaction with the enzyme without interferences of the medium (Franck et al., 2006, J Vet Diagn Invest, 18(4):326-34).

physchem = conditions: aqueous with cosolvent or surfactant or cyclodextrin
PC3 [6] = test: Cellular imaging (phase-contrast videomicroscopy), PC3; type: cell-based, human; set-up: key to effect on cell morphology / effect on cell migration: +++: high effect: cell migration of most cells is drastically altered for most of the duration of the film; ++: medium effect: compound altering cell migration of an important proportion of the cells although less drastically; +: low effect: compound affecting cell migration of a small part of the cell population, or only for a limited part of the 72 h incubation; −: no effect: as compared to the control conditions, no difference is observed; conditions: PC3, 10 μM; for GGRtreated/GGRcontrol: 72 h, global growth ratio; for effect on cell morphology: characterized by the same way as migration
Description: (§3) Cellular imaging relied on the use of computer-assisted phase-contrast microscopy making possible to film the behavior of living cells in culture dishes for several days. […] The experiment was conducted in quadruplicates. The behaviour of the cells, in terms of morphology, growth/death and migration were thus investigated. The analysis of the films was performed by two operators, working independently. The effect on cell migration was characterized as +++ (high effect: cell migration of most cells is drastically altered for most of the duration of the film), ++ (medium effect: compound altering cell migration of an important proportion of the cells although less drastically), + (low effect: compound affecting cell migration of a small part of the cell population, or only for a limited part of the 72 h incubation), - (no effect: as compared to the control conditions, no difference is observed). The effect on cell morphology was characterized by the same way. The effect on the overall growth was measured by counting the number of cells on the first (0 h) and the last image (72 h) of each film. The global growth ratio (GGR) was then deduced by dividing the number of cells on the last image by the number of cells on the first image. The ratio […], was further calculated thereby obtaining a value that describes the effect of compounds of the present invention on the overall cell growth.

U-373 MG = test: Cellular imaging (phase-contrast videomicroscopy), U-373 MG; type: cell-based, human; conditions: 10 μM, 72 h, global growth ratio
Description: as §3

[7] = tested on: isolated neutrophils stimulated by phorbol myristate acetate (PMA); test: MPO release by activated neutrophils (ELISA); type: cell-based; conditions: FIG. 18
Description: as §2

purified MPO = test: Activity of purified MPO (SIEFED); type: biochemical; conditions: FIG. 17
Description: as §2

solubility [1]: 500 mg/mL (≈ 324 mM)
Compound: CC(O)COC[C@H]1O[C@@H]2O[C@H]3[C@H](O)[C@@H](O)[C@@H](O[C@H]4[C@H](O)[C@@H](O)[C@@H](O[C@H]5[C@H](O)[C@@H](O)[C@@H](O[C@H]6[C@H](O)[C@@H](O)[C@@H](O[C@H]7[C@H](O)[C@@H](O)[C@@H](O[C@H]8[C@H](O)[C@@H](O)[C@@H](O[C@H]1[C@H](O)[C@H]2O)O[C@@H]8COCC(C)O)O[C@@H]7COCC(C)O)O[C@@H]6COCC(C)O)O[C@@H]5COCC(C)O)O[C@@H]4COCC(C)O)O[C@@H]3COCC(C)O (stereo partly drawn) [HP-beta-CD, hydroxypropyl-beta-cyclodextrin]
effect of the cyclodextrin on curcumin solubility [2]: clearly increase the solubility of curcumin

Compound: NCCCC[C@H](N)C(=O)O [Lysine]
solubility ([1]; 20 °C, water): 640 mg/mL (≈ 4380 mM)

Compound: COc1cc(CCC(=O)CC(=O)CCc2ccc(O)c(OC)c2)ccc1O [Tetrahydrocurcumin, tetrahydrocurcumin]
IC50 (PC3 [3]; Homo sapiens, PC-3, 72 h): > 10 µM | IC50 (A549; Homo sapiens, A549, 72 h): > 10 µM | IC50 (LoVo; Homo sapiens, LoVo, 72 h): > 10 µM | IC50 (BxPC3; Homo sapiens, BXPC-3, 72 h): > 10 µM | IC50 (U-373MG; Homo sapiens, U373 MG, 72 h): > 10 µM | IC50 (MCF-7; Homo sapiens, MCF7, 72 h): > 10 µM

Compound: N.N.[Cl][Pt][Cl] [cisplatin]
T/C index (ratio of median survival of treated mice to control group) [4]: 163%

IC50 (PC3 [3]; Homo sapiens, PC-3, MTT, 72 hours, prostate cancer cell line): > 10 µM | IC50 (A549; Homo sapiens, A549, MTT, 72 hours, lung cancer cell line): > 10 µM | solubility ([1]; Water (20° C.), read-out: solubility): ~0.0003 mg/mL (≈ 0.000814 mM) | IC50 (LoVo; Homo sapiens, LoVo, MTT, 72 hours, colon cancer cell line): 9.3 µM | solubility (physchem): ≤ 100 mM | IC50 (BxPC3; Homo sapiens, BXPC-3, MTT, 72 hours, pancreas cancer cell line): 9.5 µM | IC50 (MCF-7; Homo sapiens, MCF7, MTT, 72 hours, breast cancer cell line): > 10 µM
Compound: COc1cc(/C=C/C(=O)CC(=O)/C=C/c2ccc(O)c(OC)c2)ccc1O [curcumin]
inhibitory effect on ROS production / release [5]: dose-dependent inhibitory effects | GGRtreated/GGRcontrol (PC3 [6]): 0.5 | effect on cell morphology (PC3 [6]; filmed 72 h): + | IC50 (U-373MG; Homo sapiens, U373 MG, MTT, 72 hours, glioma cell line): 8.1 µM | GGRtreated/GGRcontrol (U-373 MG): 0.2 | effect on MPO release by activated neutrophils [7]: dose-dependent inhibitory effects | inhibitory effect on purified MPO activity (purified MPO): dose-dependent inhibitory effects

Compound: Curcumin Lysinate
IC50 (PC3 [3]; MTT, 72 hours, prostate cancer cell line): > 10 µM | inhibitory effect on ROS production / release [5]: dose-dependent inhibitory effects | IC50 (A549; MTT, 72 hours, lung cancer cell line): > 10 µM | IC50 (LoVo; MTT, 72 hours, colon cancer cell line): > 10 µM | GGRtreated/GGRcontrol (PC3 [6]): 0.4 | effect on cell migration (PC3 [6]; filmed 72 h): ++ | effect on cell morphology (PC3 [6]; filmed 72 h): ++ | IC50 (BxPC3; MTT, 72 hours, pancreas cancer cell line): > 10 µM | IC50 (U-373MG; MTT, 72 hours, glioma cell line): 10 µM | GGRtreated/GGRcontrol (U-373 MG): 0.2 | effect on MPO release by activated neutrophils [7]: dose-dependent inhibitory effects | IC50 (MCF-7; MTT, 72 hours, breast cancer cell line): > 10 µM | inhibitory effect on purified MPO activity (purified MPO): dose-dependent inhibitory effects

solubility [1]: 10 mg/mL
Compound: hydroxypropyl-beta-cyclodextrin complex of curcumin lysinate [NDS27]
